According to ChEMBL document CHEMBL1649101, “Desmethyl Macrolide Analogues to Address Antibiotic Resistance: Total Synthesis and Biological Evaluation of 4,8,10-Tridesmethyl Telithromycin” (2011):
≈ marks a conversion by molar mass, not a printed value.

Assays:
Format in all cases: functional
Escherichia coli [1] = assay: Antibacterial activity against wild type Escherichia coli DK/pKK3535
Staphylococcus aureus [2] = assay: Antibacterial activity against Staphylococcus aureus ATCC 33591 harboring ermA mutant
Staphylococcus aureus [3] = assay: Antibacterial activity against Staphylococcus aureus UCN14 harboring ribosomal […] mutant
Escherichia coli [4] = assay: Antibacterial activity against Escherichia coli DK/2058G harboring ribosomal A2058G mutant
Escherichia coli [5] = assay: Antibacterial activity against Escherichia coli SQ171/2058G harboring ribosomal A2058G mutant

`CC[C@H]1OC(=O)[C@H](C)C(=O)C[C@@H](O[C@@H]2O[C@H](C)C[C@H](N(C)C)[C@H]2O)[C@@](C)(OC)CCC(=O)C[C@@H]2N(CCCCn3cnc(-c4cccnc4)c3)C(=O)O[C@@]21C` was tested, and the MIC (Escherichia coli [1]) was 32 µg/mL (≈ 41.6 µM).
`CC[C@H]1OC(=O)[C@H](C)C(=O)[C@H](C)[C@@H](O[C@@H]2O[C@H](C)C[C@H](N(C)C)[C@H]2O)[C@](C)(OC)C[C@@H](C)C(=O)[C@H](C)[C@H]2N(CCCCn3cnc(-c4cccnc4)c3)C(=O)O[C@]12C` [TELITHROMYCIN] was tested, and the MIC (Staphylococcus aureus [2]) was > 128 µg/mL, the MIC (Staphylococcus aureus [3]) was > 256 µg/mL and the MIC (Escherichia coli [1]) was 0.5 µg/mL (≈ 0.616 µM). The MIC (Escherichia coli [4]) was 1 µg/mL (≈ 1.23 µM) and the MIC (Escherichia coli [5]) was > 512 µg/mL.
